The values that follow come from patent US11352308B2, “Compound and semiconductor material containing same” (DIC Corporation, priority 2016, dated 2022).

The series is described as follows: Solubility in p-xylene at room temperature (25° C.), visual complete dissolution. In kind it is physicochemical. The protocol: Solubility was evaluated by completely dissolving compound (101) visually by adding p-xylene at room temperature (25° C.).
In turn, `CCCCCCc1ccc2cc3cc(-c4ccccc4)ccc3cc2c1` [Compound (101)] gave a Solubility of compound of 1.3 wt %.

For `CCCCCCCc1ccc2cc3cc(-c4ccccc4)ccc3cc2c1` [Compound (102)], the Solubility of compound is 1.1 wt %.

In turn, `CCCCCCCCc1ccc2cc3cc(-c4ccccc4)ccc3cc2c1` [Compound (103)] registered a Solubility of compound of 0.7 wt %.

On to `CCCCCCCCCc1ccc2cc3cc(-c4ccccc4)ccc3cc2c1` [Compound (104)], for which the Solubility of compound is 0.7 wt %.

The compound `CCCCCCCCCCc1ccc2cc3cc(-c4ccccc4)ccc3cc2c1` [Compound (105)] yielded a Solubility of compound of 0.4 wt %.

As for `CCCCCCc1ccc2cc3cc(-c4ccc(C)cc4)ccc3cc2c1` [Compound (106)], the Solubility of compound is recorded as 0.8 wt %.

Turning to `CCCCCCCCCCc1ccc2cc3cc(-c4ccc(C)cc4)ccc3cc2c1` [Compound (107)], the Solubility of compound is 0.4 wt %.

In the case of `c1ccc(-c2ccc3cc4cc(-c5ccccc5)ccc4cc3c2)cc1` [Compound (C101), reference compound], the Solubility of compound is <0.1 (which cannot accurately be wt %.
